Data as given in patent US7745404B2, “Use of calcitonin and calcitonin-like peptides to treat and prevent multiple sclerosis” (Wisconsin Alumni Research Foundation, priority 2002, dated 2010).

What was measured:
Assay type in all cases: in vivo
[1] = tested on: experimental autoimmune encephalomyelitis (EAE) in male 1α-OH KO mice; experiment: EAE (murine model of MS) in male 1α-OH KO mice, Example 1
Description: (§1) To determine the effect of calcitonin on the murine model of MS, experimental autoimmune encephalomyelitis (EAE), 25-hydroxyvitamin D3-1α-hydroxylase knockout mice (1α-OH KO) were maintained on a purified diet containing 0.87% calcium and 1 ng 1,25-(OH)2D3 (Vit D) for two to three weeks prior to EAE immunization. EAE was induced at six to ten weeks of age by subcutaneous immunization of 200 μg of the immunodominant peptide to myelin oligodendrocyte glycoproprotein (MOG35-55).
(§2) The peptide was synthesized at University of Wisconsin Biotechnology Center using standard 9-fluorenyl-methoxy-carbonyl chemistry. The peptide was dissolved in Freund's complete adjuvant (CFA; Sigma; St. Louis, Mo.) containing 4 mg/ml of heat-inactivated Mycobacterium tuberculosis […] (Difco Laboratories; Detroit, Mich.).
(§3) Mice were injected with 200 ng of Bordetella pertussis toxin (List Biological Laboratories, Campbell, Calif.) on the day of immunization and 48 hours later. The mice were examined daily for clinical signs of EAE utilizing the following scoring system: 0, no sign; 1, limp tail; 2, hindlimb weakness; 3, hindlimb paralysis; 4, forelimb paralysis; 5, moribund or death.
(§4) Salmon calcitonin (sCT; Bachem California; Torrence, Calif.) was dissolved to a concentration of 1 mg/ml in a vehicle containing 150 mM NaCl, 1 mM HCl, and 2% heat inactivated sera. The serum used was from 1α-OH KO mice matched by sex to the group of mice receiving the treatment. SCT was chronically administered using Alzet osmotic minipumps model 1002 (Durect Corp.; Cupertino, Calif.) calibrated to deliver 0.25 μl/hour over a 15 day period.
(§5) Ten days after immunization, mice were weighed and the pumps were filled with either vehicle or sCT diluted to deliver 6 μg/kg of body weight per day to each mouse. The pumps were surgically placed subcutaneously in the upper back of mice anesthetized with 2% isofluorane. At the end of the study, successful delivery of the sCT was assessed by two methods. First, the fluid volume remaining in the pump reservoirs was measured. Second, the remaining sCT was pooled and intraperitoneally injected into 1α-knockout mice that were not included in the initial study. Serum calcium measurements were taken six hours after injection to determine if sCT maintained its bioactivity throughout the study. Blood samples were collected at multiple time-points throughout the study to monitor changes in serum calcium levels. Blood was obtained by the orbital bleed method. Approximately 150 μl was collected per mouse.
(§6) Statistical analysis was performed using the two-tailed Fisher exact probability test on incidence rates and the unpaired Student's t-test on all other measurements. Values of P<0.05 were considered statistically significant.

[2] = Serum calcium in female C57BL/6J mice, Example 3
Description: (§7) Collected blood samples were centrifuged at 6000 rpm for 15 minutes; followed by another 60-second spin at 14000 rpm. Serum samples were diluted in 0.1% LaCl3 and serum calcium values were measured using a Perkin Elmer atomic absorption spectrometer.
(§8) Blood samples were collected at multiple time-points and prepared and analyzed as described above. Likewise, statistical analysis was as performed as noted above.

[3] = tested on: experimental autoimmune encephalomyelitis (EAE) in female 1α-OH KO mice; experiment: EAE (murine model of MS) in female 1α-OH KO mice, Example 1
Description: as §1, §2, §3, §4, §5, §6

[4] = tested on: EAE in female C57BL/6J mice; experiment: EAE in female C57BL/6J mice, sCT dose levels, Example 3; conditions: for % Sick / Incidence / Severity / Mean Onset Day: female C57BL/6J mice, standard chow; for Incidence: animals sick/total; for Severity: EAE score 0-5; for Mean Onset Day: days post immunization
Description: To determine the effect of calcitonin on EAE in C57BL/6J mice (C57BL6 mice from Jackson Labs), female mice were maintained on a standard chow diet prior to and following EAE immunization. The C57BL6J strain was chosen primarily because it is one of the few strains susceptible to MOG-induced EAE, and also because the 1α-KO has been backcrossed into the C57BL6J strain. The diet was changed primarily because the mice being used were wild-type and no longer required the supplemented 1,25(OH)2D3 that the 1α-KO mice do. Additionally, we have typically seen higher incidence rates when animals are maintained on a regular chow diet versus the purified diet.
(§9) EAE was induced as described above. Mice were injected with 200 ng of B. pertussis toxin on the day of immunization and 48 hours later.
(§10) sCT was prepared as described above. One week after immunization, mice were weighed and the pumps were filled with vehicle, 6 μg/kg of sCT per day of body weight or 60 μg/kg of sCT per day of body weight to each mouse. The pumps were surgically placed subcutaneously in the upper back of mice anesthetized with 2% isofluorane. At the end of the study, successful delivery of the sCT was assessed by two methods. First, the fluid volume remaining in the pump reservoirs was measured. Second, the remaining sCT was pooled and intraperitoneally injected into C57BL/6J mice that were not included in the initial study. Serum calcium measurements were taken six hours after injection to determine if sCT maintained its bioactivity throughout the study.
(§11) Mice were examined daily, for over two weeks, for clinical signs of EAE utilizing the following scoring system as described above.
as §8

[5] = Serum calcium in 1α-OH KO mice, Example 1; conditions: 6 μg/kg of calcitonin
Description: as §5, §7

[6] = tested on: EAE in female C57BL/6J mice; experiment: EAE in female C57BL/6J mice, calcitonin and Vit D, Example 4; conditions: female C57BL6J mice, sCT (30 μg/kg per day), compared to 1 ng Vit D alone (FIG. 5, Table 6)
Description: To determine the effect of calcitonin and Vit D on EAE in C57BL/6J mice, female C57BL/6J mice were maintained on standard chow until eight weeks of age, and then switched to a purified diet containing 0.87% calcium supplemented with 1 ng or 30 ng of 1,25-(OH)2D3 for one week prior to EAE immunization.
as §9
as §10, with “vehicle or 30” for “vehicle, 6”, “μg/kg” for “μg/kg of sCT”, “of” for “of body weight or 60 μg/kg of”, “sCT” for “sCT per day”
as §11
Blood samples were collected at multiple time-points and prepared and analyzed as described above. Likewise, statistical analysis was performed as noted above.

For Salmon calcitonin [sCT], the “% Sick” value ([1]; male 1α-KO mice, 0.87% calcium + 1 ng Vitamin D diet, sCT 6 μg/kg per day by minipump) was 28.6%, the Severity ([1]; male 1α-KO mice, 0.87% calcium + 1 ng Vitamin D diet, sCT 6 μg/kg per day by minipump, EAE score 0-5) was 2.5 ± 0.7 and the “Mean Onset Day” value ([1]; male 1α-KO mice, 0.87% calcium + 1 ng Vitamin D diet, sCT 6 μg/kg per day by minipump, days post immunization) was 30 ± 8 days. The Incidence ([1]; male 1α-KO mice, 0.87% calcium + 1 ng Vitamin D diet, sCT 6 μg/kg per day by osmotic minipump from ten days after immunization, animals sick/total) was 2/7 sick, the “reduction in the EAE score, male versus female” value ([1]; male 1α-OH KO mice treated with calcitonin compared with female 1α-OH KO mice treated with calcitonin) was “similar, but lesser, reduction in the EAE score” and the EAE score ([1]; male 1α-OH KO mice, compared to vehicle alone (FIG. 2, Table 3)) was “lowered the EAE score”. The serum calcium levels ([2]; 6 μg/kg of calcitonin) was “initially lowered”, the serum calcium levels ([2]; 60 μg/kg of calcitonin) was “initially lowered” and the “% Sick” value ([3]; female 1α-KO mice, 0.87% calcium + 1 ng Vitamin D diet, sCT 6 μg/kg per day by minipump from ten days after immunization) was 42.9%. The Severity ([3]; female 1α-KO mice, 0.87% calcium + 1 ng Vitamin D diet, sCT 6 μg/kg per day by minipump, EAE score 0-5) was 1.3 ± 0.6, the “Mean Onset Day” value ([3]; female 1α-KO mice, 0.87% calcium + 1 ng Vitamin D diet, sCT 6 μg/kg per day by minipump, days post immunization) was 41 ± 11 days and the Incidence ([3]; female 1α-KO mice, 0.87% calcium + 1 ng Vitamin D diet, sCT 6 μg/kg per day by osmotic minipump from ten days after immunization, animals sick/total) was 3/7 sick. The EAE score ([3]; female 1α-OH KO mice, compared to vehicle alone (FIG. 1, Table 2)) was “delayed and diminished the EAE score”, the EAE score ([4]; female C57BL6J mice administered 60 μg/kg of calcitonin, compared to vehicle alone (FIG. 4, Table 5)) was “delayed and diminished the EAE score” and the “% Sick” value ([4]; 6 μg/kg sCT) was 82.0%. The Incidence ([4]; 6 μg/kg sCT per day by minipump from one week after immunization) was 9/11 sick, the Severity ([4]; 6 μg/kg sCT) was 3.8 ± 0.6 and the “Mean Onset Day” value ([4]; 6 μg/kg sCT) was 14 ± 3 days. For the same substance, the “% Sick” value ([4]; 60 μg/kg sCT) was 67.0%, the Incidence ([4]; 60 μg/kg sCT per day by minipump from one week after immunization) was 6/9 sick and the Severity ([4]; 60 μg/kg sCT) was 3.5 ± 1.3. For the same substance, the “Mean Onset Day” value ([4]; 60 μg/kg sCT) was 16 ± 2 days, the serum calcium levels ([5]; female 1α-OH KO mice) was “generally unaffected” and the serum calcium levels ([5]; male 1α-OH KO mice) was “unaffected”. The EAE score [6] was “delayed and diminished the EAE score”.
